# From patent US20230094922A1, “METHODS OF THERAPEUTIC PROGNOSTICATION” (GENETIKAPLUS LTD., priority 2020, published 2023)
# System: iPSC-derived cortical neurons
# Experiment: RNA sequencing, differential gene expression: Bupropion-treated vs vehicle-only induced neurons (Tables 5, 6)
# Type: cell-based, human
# Protocol: iPSC differentiation into neurons-iPSCs were seeded at a density of 3×10^6 cells/well on a hESC-qualified Matrigel pre-coated 6-well plate and incubated at 37° C., 5% CO2 overnight. Differentiation was initiated the following day (day 0) after verifying that 100% confluency was reached. Differentiation media was added daily according to the following order: […]7 (day 15 onward) similar to a previously published protocol developed by for rapid differentiation to cortical neurons. The components of the described media, Q1-7, are provided in Appendix 1. Cells were assessed for differentiation efficiency and cell death on a daily basis. On day 9, differentiated neurons were re-plated on either 96-well plates (destined for staining) or 12-well plates (destined for RNA extraction) that were coated with 15 μg/mL Poly-ornithine diluted in PBS (overnight incubation at 37° C.), followed by 1 μg/mL Laminin and 2 μg/mL Fibronectin diluted in PBS (overnight incubation at 37° C.): Neurons were first rinsed with pre-warmed PBS and 1 ml/well of Accutase was added for 35 minutes at 37° C., 5% CO2. DNAse1 (0.5 mg/mL) was then added for 10 additional minutes. 3 ml of pre-warmed Neurobasal media was added to each well and neurons were gently collected using a 5 ml […]. Wells were then verified for the presence of any remaining neurons. Neurons were spun down and resuspended in Q6 media. Neurons were seeded at a density of 150,000 cells/cm^2 placed back at 37° C. Following four hours of incubation, media was changed to Q6 media (150 μl per 96-well and 1 ml per 12-well). […] RNA-sequencing samples were aligned to the GRCh38 reference genome using STAR aligner. TMM normalization of RNA read counts and differential gene expression analysis were carried out using edgeR. […] Cells were reprogrammed into iPSCs, following which iPSCs were differentiated into frontal cortical neuronal cells (see Materials and Methods). […] Another dose of drug or control was also administered at day 32. At day 35 neurons were either fixed for histological examination or isolated for RNA extraction.
# [1] = 10 μM Bupropion vs vehicle, responder-derived neurons, day 35, PValue NS (not significant)
# [2] = Bupropion vs vehicle only, p<0.05, over 60,000 genes probed
smiles,measurement,setting,value
"CC(NC(C)(C)C)C(=O)c1cccc(Cl)c1 (stereo not drawn) [Bupropion, 3-Chloro-N-tert-butyl-β-keto-α-methylphenethylamin]",logFC NFKBID expression,"10 μM Bupropion vs vehicle, responder-derived neurons, day 35, PValue 0.003685448",−0.6042
same,logFC TCF7 expression,"10 μM Bupropion vs vehicle, responder-derived neurons, day 35, PValue 0.005666754",−0.3904
same,logFC DUSP23 expression,"10 μM Bupropion vs vehicle, responder-derived neurons, day 35, PValue 0.006214757",−0.4927
same,logFC TENT5B expression,"10 μM Bupropion vs vehicle, responder-derived neurons, day 35, PValue 0.008132328",−0.8021
same,logFC UGT3A2 expression,"10 μM Bupropion vs vehicle, responder-derived neurons, day 35, PValue 0.009321582",−0.4889
same,logFC CCDC51 expression,"10 μM Bupropion vs vehicle, responder-derived neurons, day 35, PValue 0.012079592",−0.2443
same,logFC CTNS expression,"10 μM Bupropion vs vehicle, responder-derived neurons, day 35, PValue 0.013463621",−0.2404
same,logFC PYCARD expression,"10 μM Bupropion vs vehicle, responder-derived neurons, day 35, PValue 0.013981248",−1.05
same,logFC ABHD4 expression,"10 μM Bupropion vs vehicle, responder-derived neurons, day 35, PValue 0.014582448",−0.3111
same,logFC PTPRQ expression,"10 μM Bupropion vs vehicle, responder-derived neurons, day 35, PValue 0.018081564",0.89
same,logFC SMPDL3B expression,"10 μM Bupropion vs vehicle, responder-derived neurons, day 35, PValue 0.022812161",−0.7488
same,logFC KLC3 expression,"10 μM Bupropion vs vehicle, responder-derived neurons, day 35, PValue 0.023692875",−0.8533
same,logFC PNKP expression,"10 μM Bupropion vs vehicle, responder-derived neurons, day 35, PValue 0.024437941",−0.2172
same,logFC SPNS1 expression,"10 μM Bupropion vs vehicle, responder-derived neurons, day 35, PValue 0.024838304",−0.7022
same,logFC FAM117A expression,"10 μM Bupropion vs vehicle, responder-derived neurons, day 35, PValue 0.025868873",−0.2485
same,logFC PPL expression,"10 μM Bupropion vs vehicle, responder-derived neurons, day 35, PValue 0.026069274",−0.3932
same,logFC ZNF425 expression,"10 μM Bupropion vs vehicle, responder-derived neurons, day 35, PValue 0.026180649",−0.2317
same,"logFC MT2A expression (Table 6, downregulated)","10 μM Bupropion vs vehicle, responder-derived neurons, day 35, PValue 0.02632325",−0.7705
same,logFC COX16 expression,"10 μM Bupropion vs vehicle, responder-derived neurons, day 35, PValue 0.026606667",0.3985
same,logFC RSAD2 expression,"10 μM Bupropion vs vehicle, responder-derived neurons, day 35, PValue 0.026606947",0.9753
same,logFC PPP1R1B expression,"10 μM Bupropion vs vehicle, responder-derived neurons, day 35, PValue 0.026677416",−0.677
same,logFC LLPH expression,"10 μM Bupropion vs vehicle, responder-derived neurons, day 35, PValue 0.026874183",0.1758
same,logFC CKS1B expression,"10 μM Bupropion vs vehicle, responder-derived neurons, day 35, PValue 0.02807621",−0.3153
same,logFC LGR6 expression,"10 μM Bupropion vs vehicle, responder-derived neurons, day 35, PValue 0.028853165",−0.6091
same,logFC TSTD2 expression,"10 μM Bupropion vs vehicle, responder-derived neurons, day 35, PValue 0.028984217",0.1932
same,logFC HS3ST5 expression,"10 μM Bupropion vs vehicle, responder-derived neurons, day 35, PValue 0.028999172",0.5251
same,logFC ART5 expression,"10 μM Bupropion vs vehicle, responder-derived neurons, day 35, PValue 0.030155652",−0.5082
same,logFC ADRA2B expression,"10 μM Bupropion vs vehicle, responder-derived neurons, day 35, PValue 0.031233579",−0.7451
same,logFC ZNF394 expression,"10 μM Bupropion vs vehicle, responder-derived neurons, day 35, PValue 0.031885505",−0.1977
same,logFC CHMP4A expression,"10 μM Bupropion vs vehicle, responder-derived neurons, day 35, PValue 0.031923817",0.3939
same,logFC ETV5 expression,"10 μM Bupropion vs vehicle, responder-derived neurons, day 35, PValue 0.031953602",−0.2432
same,logFC VWA2 expression,"10 μM Bupropion vs vehicle, responder-derived neurons, day 35, PValue 0.033110679",−0.8249
same,logFC CDC42BPG expression,"10 μM Bupropion vs vehicle, responder-derived neurons, day 35, PValue 0.034205433",−0.6386
same,logFC PSD3 expression,"10 μM Bupropion vs vehicle, responder-derived neurons, day 35, PValue 0.034363174",0.2947
same,logFC TRAF3IP2 expression,"10 μM Bupropion vs vehicle, responder-derived neurons, day 35, PValue 0.035638975",−0.342
same,logFC TXNRD2 expression,"10 μM Bupropion vs vehicle, responder-derived neurons, day 35, PValue 0.036129679",−0.3971
same,logFC RAB43 expression,"10 μM Bupropion vs vehicle, responder-derived neurons, day 35, PValue 0.036339642",−0.7667
same,logFC APOE expression,"10 μM Bupropion vs vehicle, responder-derived neurons, day 35, PValue 0.036466348",−0.4756
same,logFC TYW1B expression,"10 μM Bupropion vs vehicle, responder-derived neurons, day 35, PValue 0.037441749",−0.2836
same,logFC ARL17B expression,"10 μM Bupropion vs vehicle, responder-derived neurons, day 35, PValue 0.037774775",0.4487
same,logFC TOM1 expression,"10 μM Bupropion vs vehicle, responder-derived neurons, day 35, PValue 0.039328923",−0.2212
same,logFC FGF1 expression,"10 μM Bupropion vs vehicle, responder-derived neurons, day 35, PValue 0.040753088",0.7441
same,logFC GPR89A expression,"10 μM Bupropion vs vehicle, responder-derived neurons, day 35, PValue 0.040776978",−0.3135
same,logFC HAUS8 expression,"10 μM Bupropion vs vehicle, responder-derived neurons, day 35, PValue 0.040813288",−0.3377
same,logFC TNNI3 expression,"10 μM Bupropion vs vehicle, responder-derived neurons, day 35, PValue 0.04085042",−0.4473
same,logFC INMT expression,"10 μM Bupropion vs vehicle, responder-derived neurons, day 35, PValue 0.04107423",0.8156
same,logFC LHFPL3 expression,"10 μM Bupropion vs vehicle, responder-derived neurons, day 35, PValue 0.041076888",0.8454
same,logFC TJP3 expression,"10 μM Bupropion vs vehicle, responder-derived neurons, day 35, PValue 0.041258334",−0.4285
same,logFC RNASEK expression,"10 μM Bupropion vs vehicle, responder-derived neurons, day 35, PValue 0.041364592",−0.4148
same,logFC MACROD1 expression,"10 μM Bupropion vs vehicle, responder-derived neurons, day 35, PValue 0.041485982",−0.4078
same,logFC DDX55 expression,"10 μM Bupropion vs vehicle, responder-derived neurons, day 35, PValue 0.041521555",−0.177
same,logFC MAP4K1 expression,"10 μM Bupropion vs vehicle, responder-derived neurons, day 35, PValue 0.041777603",−0.4541
same,logFC MADCAM1 expression,"10 μM Bupropion vs vehicle, responder-derived neurons, day 35, PValue 0.042721026",−0.6346
same,logFC NMRK2 expression,"10 μM Bupropion vs vehicle, responder-derived neurons, day 35, PValue 0.042934722",−0.915
same,logFC RARRES2 expression,"10 μM Bupropion vs vehicle, responder-derived neurons, day 35, PValue 0.044126316",−0.5614
same,logFC GABRD expression,"10 μM Bupropion vs vehicle, responder-derived neurons, day 35, PValue 0.044432972",−0.661
same,logFC SCN9A expression,"10 μM Bupropion vs vehicle, responder-derived neurons, day 35, PValue 0.044462789",0.653
same,logFC CTSD expression,"10 μM Bupropion vs vehicle, responder-derived neurons, day 35, PValue 0.044610728",−0.3042
same,logFC MINDY3 expression,"10 μM Bupropion vs vehicle, responder-derived neurons, day 35, PValue 0.044932218",0.1907
same,logFC FBXO2 expression,"10 μM Bupropion vs vehicle, responder-derived neurons, day 35, PValue 0.044969345",−0.5297
same,logFC MT1X expression,"10 μM Bupropion vs vehicle, responder-derived neurons, day 35, PValue 0.045842417",−0.6858
same,logFC LRRC2 expression,"10 μM Bupropion vs vehicle, responder-derived neurons, day 35, PValue 0.045853063",−0.8234
same,logFC ZFP69B expression,"10 μM Bupropion vs vehicle, responder-derived neurons, day 35, PValue 0.046824204",0.2565
same,logFC SLC45A2 expression,"10 μM Bupropion vs vehicle, responder-derived neurons, day 35, PValue 0.046871029",−1.05
same,logFC KLHL21 expression,"10 μM Bupropion vs vehicle, responder-derived neurons, day 35, PValue 0.047318696",−0.2723
same,logFC RILPL1 expression,"10 μM Bupropion vs vehicle, responder-derived neurons, day 35, PValue 0.047560251",−0.1692
same,logFC PSMB10 expression,"10 μM Bupropion vs vehicle, responder-derived neurons, day 35, PValue 0.048107795",−0.5669
same,logFC LHPP expression,"10 μM Bupropion vs vehicle, responder-derived neurons, day 35, PValue 0.048445403",−0.2669
same,logFC RABEP2 expression,"10 μM Bupropion vs vehicle, responder-derived neurons, day 35, PValue 0.049224822",−0.2496
same,logFC LARGE2 expression,"10 μM Bupropion vs vehicle, responder-derived neurons, day 35, PValue 0.049340025",−0.566
same,logFC ZNF221 expression,"10 μM Bupropion vs vehicle, responder-derived neurons, day 35, PValue 0.049596306",0.3254
same,logFC LIN37 expression,"10 μM Bupropion vs vehicle, responder-derived neurons, day 35, PValue 3.06E−05",−0.8411
same,logFC APOL1 expression,[1],−0.7489
same,logFC ATP8B4 expression,[1],−0.6945
same,logFC CA3 expression,[1],0.6571
same,logFC CDK6 expression,[1],0.2579
same,logFC CORT expression,[1],0.6431
same,"logFC CXCL11 expression (Table 6, downregulated)",[1],−1.176
same,logFC ESR2 expression,[1],0.4833
same,logFC GOLGA8H expression,[1],−0.565
same,logFC GRPR expression,[1],0.6268
same,logFC MT1E expression,[1],2.123
same,"logFC MT2A expression (Table 5, upregulated)",[1],1.378
same,logFC PITX2 expression,[1],0.9302
same,logFC SEPTIN5 expression,[1],0.5877
same,"number of genes significantly downregulated in responders after treatment, but not in non-responders",[2],57 genes
same,"number of genes significantly upregulated in responders after treatment, but not in non-responders",[2],18 genes
